Test results from patent publication US6992068B2 (Gifu Shellac Mfg., Co., Ltd., priority 2000, dated 2006).

Tests used:
[1] = tested on: collagen induction arthritis model; assay: Experiment 2: collagen induction arthritis model, arthritis index; assay type: in vivo, mice; conditions: for symptoms of arthritis: purified periandrins in the model of Experiment 2; for arthritis index (ranking 0-5), group average: 5 mg/head i.p. every other day
Procedure: Clinical symptoms of arthritis of mice in the respective groups were evaluated by one and the same observer using 6 rankings from zero to five (the larger the value is, the worse the symptom is), and the averages per the respective groups were calculated. These evaluations were performed in 0, 3rd, 4th, 5th, 6th, 7th and 8th week after the first immunity The results were shown in FIG. 3 and Table 3.

[2] = tested on: autoimmune encephalomyelitis model; assay: Experiment 3: autoimmune encephalomyelitis model, clinical score; assay type: in vivo, rats; conditions: for symptoms of encephalomyelitis: purified periandrins in the model of Experiment 3
[3] = target: T1, 11 β-hydroxysteroid dehydrogenase (Rattus norvegicus, UniProt P16232); assay: Experiment 5: inhibition of 11 β-hydroxysteroid dehydrogenase activity (rat liver microsome, cortisone by HPLC); assay type: biochemical; conditions: for inhibitory activity relative to glycirrhizin: from IC50 values; for IC50: rat liver microsome, substrate hydrocortisone, NADP 1 mM, pH 8.0, read-out: IC50 (concentration in which 50 percent of enzyme activity is inhibited)
T1 construct: Fresh rat liver was ice-cooled and homogenized in 0.25 M sucrose solution; from tissue; host or cells: rat liver microsome fraction
Procedure: In order to evaluate the effect of inhibiting 11 β-hydeoxysteroid dehydrogenase activity by the purified periandrins (PD-I, PD-II, PD-III, PD-IV) obtained in Example 4 or 5, IC 50 values (concentration in which the 50 percent of activity of the above enzyme is inhibited) of the purified periandrins were measured by the following steps I-VI.
I. An enzymatic solution containing rat liver microsome as a preparation of 11 β-hydroxysteroid dehydrogenase was prepared as below.
Fresh rat liver was ice-cooled and homogenized in 0.25 M sucrose solution. Then, at the temperature of 4° C., it was centrifuged for 20 minutes at 10,000×g.
After separating cell organelles of the nucleus, mitochondria and lysosome as deposits, the supernatant layer was further centrifuged at 105,000×g for 60 minutes at the temperature of 4° C. to obtain a microsome fraction as a precipitate.
The obtained microsome fraction was suspended by 0.25 M sucrose solution to produce an enzymatic solution, and the obtained solution was stored at the temperature of −20 degrees till the time of measurement of enzyme activity.
1 mM of NADP (product of Oriental Yeast Co., Ltd,) as a coenzyme and an amount of PD-I having a predetermined concentration (ranging from 2 to 1480 μM) as an inhibitor were added to 0.8 ml of Tris-HCI buffer solution having the concentration of 100 mM (PH8.0).
0.2 ml of the enzymatic solution prepared in step I was added to the obtained solution, and after three minutes of preincubation at 37° C., 0.02 ml of 5 mM hydrocortisone solution which was dissolved in methanol was added to start a reaction between 11 β-hydroxysteroid dehydrogenase and PD-I. The reaction was continued for 30 minutes at the temperature of 30° C., and then it was stopped by adding 0.5 ml of ethyl acetate.
This solution was centrifuged and an ethyl acetate layer was separated into an Eppendorf tube. In the mean time, cortisone and substrate hydrocortisone generated by the reaction between 11 β-hydroxysteroid dehydrogenase and substrate hydrocortisone are transferred to the ethyl acetate layer.
Furthermore, the water phase after the centrifuge was again centrifuged in the same manner as above by adding 0.5 ml of ethyl acetate to separate an ethyl acetate layer. This process was repeated two more times.
The ethyl acetate layers obtained by three time extraction were put together into an Eppendorf tube and dried using a centrifugal evaporator.
To prepare a measurement sample, 0.2 ml of methanol was added into the Eppendorf tube in which the ethyl acetate layers were dried in step II, and then the tube was left for a night so that cortisone was completely dissolved. Cortisone was determined using HPLC.
Particularly, quantity of cortisone contained in the sample was calculated from a ratio of a peak area corresponding to cortisone when the measurement sample was introduced to HPLC to a peak area when 5 μl of standard solution (0.1 mg/ml of cortisone-methanol solution) was introduced.
The measurement conditions of HPLC were as follows.
IV. Relative activity (ratio of activity remained after reaction with an inhibitor to the initial activity) of 11 β-hydroxysteroid dehydrogenase was calculated from the quantity of cortisone in accordance with the following equation. Relative activity=((CI−CBL)/(CT−CBL))×100(%) • where • CT: cortisone quantity generated when no inhibitor is added; • CI: cortisone quantity generated when an inhibitor exists; and • CBL: cortisone quantity when enzyme is not added.
V. Measurement of relative activity when PD-II, PD-III, PD-IV, and glycirrhizin were added as an inhibitor instead of PD-I was performed in the same manner as in steps I-IV.
The concentration of the inhibitor PD-I, PD-II, PD-III or PD-IV in the measurement of relative activity is a predetermined value ranging from 2 to 1480 μM. The concentration of glycirrhizin is a predetermined value ranging from 0.2 to 445 μM. […]

cytokine production = assay: Experiment 6: inhibition of cytokine production by purified periandrins, same manner as Experiment 1; assay type: in vivo, rats; conditions: 0.1-3 mg/Kg of body weight per injection
Procedure: (§1) In this case, however, the number of groups of rats were made six, one of which includes the rats to which PD-I was injected, another of which includes the rats to which PD-II was injected, another of which includes the rats to which PD-III was injected, another of which includes the rats to which PD-IV was injected, another of which includes the rats to which prednisolone acetate was injected, and another of which includes the rats to which a solvent without any drugs was injected.
(§2) The dose per one injection of PD-I, PD-II, PD-III and PD-IV was 0.1-3 mg/Kg of body weight.
(§3) The dose per one injection of prednisolone acetate was 5 mg/Kg of body weight.

liver function = assay: Experiment 6: protecting and promoting liver function by purified periandrins, same manner as Experiment 1; assay type: in vivo, rats; conditions: 0.1-3 mg/Kg of body weight per injection
Procedure: as §1, §2, §3

interleukin-6 (IL-6) = assay: Experiment 1: blood cytokine (IL-6) in mice with Propionivacterium acnes / lipopolysaccharide induced hepatopathy; assay type: in vivo; conditions: groups B (Brazilian licorice extract of Example 1, 25 mg), D (Chinese licorice extract of Comparative Example 1, 25 mg), F (prednisolone acetate 5 mg); i.p. four times; serum 2 h after LPS
Procedure: (§4) The following experiment was performed to examine the effects of inhibiting cytokine production and lowering GOT activity of the extracts obtained in Example 1 and Comparative Example 1. Male mice of ddy system (Japan SLC, Inc.), each of which weighs 18-20 g, are prepared for the experiment. […] 5 mg of Propionivacterium acnes suspension was injected into the vein of the aforementioned mice respectively, to cause hepatopathy. […] 10 μg of lipopolysaccharide was injected into the vein of the mice in all groups respectively, thirty minutes after the fourth injection in step II (as to the mice in group A, the injection was performed at the same timing as the mice in the other groups). Then, two hours later, blood was taken from all the mice to obtain serum. There was no visible change in weight and food and water consumption of the mice. From the serum obtained in step III, measurement of interleukin-6 (IL-6), which is a kind of cytokine, was performed. For the measurement, a commercially available measurement kit which adopts Fluorescence Linked immuno-Sorbent Assay using fluorescence labeling antibody was used. […] The measured values in Table 1 show IL-6 levels (unit: picogram) per 1 ml serum.

[4] = tested on: glutamic-oxaloacetic transaminase activity (GOT); assay: Experiment 1: blood GOT activity in mice with Propionivacterium acnes / lipopolysaccharide induced hepatopathy; assay type: in vivo; conditions: groups B (Brazilian licorice extract, 25 mg), D (Chinese licorice extract, 25 mg), F (prednisolone acetate 5 mg); i.p. four times
Procedure: as §4, with “glutamic-oxaloacetic transaminase activity (GOT)” for “measurement of interleukin-6 (IL-6), which is a kind of cytokine,”, “measured.” for “performed.”, “Enzyme” for “Fluorescence”, “enzyme” for “fluorescence”, “Units.” for “The measured values in Table 1 show IL-6 levels (unit: picogram) per 1 ml serum.”

[5] = tested on: collagen induction arthritis model; assay: Experiment 2: collagen induction arthritis model, foot pad swelling (foot pad volume); assay type: in vivo, mice; conditions: 5 mg/head i.p. every other day
Procedure: These evaluations were performed in 0, 3rd, 4th, 5th, 6th, 7th and 8th weeks after the first immunity. The values in FIG. 4 are relative values based on the initial hind foot pad volumes.

[6] = Experiment 4: weight changes of rats in autoimmune encephalomyelitis model; assay type: in vivo; conditions: 5 mg/Kg of body weight per injection
Procedure: The immunosuppressive effect of the BL. 1, BL. 2 and […].
The manner of experiment was basically the same as the aforementioned Experiment 3.
However, the number of groups of rats were reduced to five, one of which included the rats to which the BL. 1 was injected, another of which included the rats to which the BL. 2 was injected, another of which included the rats to which the BL. 3 was injected, another of which included the rats to which prednisolone acetate was injected, and another of which included the rats without injection.
The dose per one injection of BL. 1, BL. 2 and BL. 3 was 6 mg/head and in the form of physiological saline.
The dose per one injection of prednisolone acetate was 5 mg/Kg of body weight and in the form of physiological saline.

[7] = extracts of Example 2 / Comparative Example 2 6 and 12.5 mg/head, prednisolone acetate 5 mg/Kg, i.p. every other day, eight weeks
Procedure: DBJ/1J mice were used in the experiment. The mice are divided into six groups, namely, G, H, I, J, K and L, each consisting of six mice.
50 μl (200 μg/head) of the emulsion was then injected to the back neck skin of each of the mice under ether (first immunity).
Three weeks after the first immunity, 50 μl (200 μg/head) of the emulsion was injected to the tail head skin of each of the mice (second immunity).
Prednisolone acetate (produced by Shionogi & Co., Ltd.) which is a control drug was suspended by physiological saline so that the dosage is 5 mg/Kg of body weight, and the obtained suspended solution was injected into the abdominal cavity of each mouse in group L by 1 ml every other day after the first immunity.
The above injections were performed all through the test period (for eight weeks after the first immunity).
The weight of the mice in the respective groups were measured every day after the first immunity and the average weight per each of the groups was calculated.

T1 sequence (P16232 whole entry): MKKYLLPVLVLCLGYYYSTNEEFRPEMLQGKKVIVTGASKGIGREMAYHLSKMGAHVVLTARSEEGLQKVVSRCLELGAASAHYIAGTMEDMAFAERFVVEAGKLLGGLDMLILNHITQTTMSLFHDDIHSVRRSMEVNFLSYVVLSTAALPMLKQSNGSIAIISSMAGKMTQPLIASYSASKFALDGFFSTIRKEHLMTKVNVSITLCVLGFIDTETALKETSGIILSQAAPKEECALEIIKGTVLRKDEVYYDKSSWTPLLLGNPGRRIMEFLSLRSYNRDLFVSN

Compound | symptoms of arthritis [1] | symptoms of encephalomyelitis [2] | inhibitory activity relative to glycirrhizin [3] | IC50 [3] [µM] | effect of inhibiting cytokine production (cytokine production) | effect of protecting and promoting liver function (liver function) | also measured
CC1(C)[C@@H](O[C@@H]2O[C@H](C(=O)O)[C@@H](O)[C@H](O)[C@H]2O[C@@H]2O[C@H](C(=O)O)[C@@H](O)[C@H](O)[C@H]2O)CC[C@]2(C=O)[C@H]3CC[C@@H]4C5=C[C@@](C)(C(=O)O)CC[C@]5(C)CC[C@@]4(C)[C@]3(C)CC[C@@H]12 [PD-I, periandrin I] | eased the symptoms of arthritis | eased the symptoms of arthritis and encephalomyelitis | about one fifth to one twentieth of glycirrhizin | 214 | show the effects of inhibiting cytokine production | protecting and promoting liver function | –
CC1(C(=O)O)C=C2C3CCC4C5(CO)CCC(OC6OC(C(=O)O)C(O)C(O)C6OC6OC(C(=O)O)C(O)C(O)C6O)C(C)(C)C5CCC4(C)C3(C)CCC2(C)CC1 (centres unmarked) [PD-III, periandrin III] | eased the symptoms of arthritis | eased the symptoms of arthritis and encephalomyelitis | about one fifth to one twentieth of glycirrhizin | 581 | show the effects of inhibiting cytokine production | protecting and promoting liver function | –
CC1(C)[C@@H](O[C@H]2O[C@H](C(=O)O)[C@@H](O)[C@H](O)[C@H]2O[C@@H]2O[C@H](C(=O)O)[C@@H](O)[C@H](O)[C@H]2O)CC[C@]2(C)[C@H]3C(=O)C=C4[C@@H]5C[C@@](C)(C(=O)O)CC[C@]5(C)CC[C@@]4(C)[C@]3(C)CC[C@@H]12 [glycirrhizin, reference compound] | – | – | – | 26.2 | – | – | –
CC(=O)OCC(=O)[C@@]1(O)CC[C@H]2[C@@H]3CCC4=CC(=O)C=C[C@]4(C)[C@H]3[C@@H](O)C[C@@]21C [prednisolone acetate] | – | – | – | – | – | – | blood IL-6 level, average of eight mice (interleukin-6 (IL-6)): 26473 picogram per 1 ml serum; blood GOT activity level, average of eight mice [4]: 350.705 Kermen Units; arthritis index (ranking 0-5), group average ([1]; 3rd week): 0; arthritis index (ranking 0-5), group average ([1]; 4th week): 0; arthritis index (ranking 0-5), group average ([1]; 5th week): 0; arthritis index (ranking 0-5), group average ([1]; 6th week): 0; arthritis index (ranking 0-5), group average ([1]; 7th week): 0.125; arthritis index (ranking 0-5), group average ([1]; 8th week): 0.125; arthritis index (ranking 0-5), group average ([1]; Primary immunity): 0; hind foot pad volume, group average, relative to initial volume ([5]; 3rd week): 99.2; hind foot pad volume, group average, relative to initial volume ([5]; 4th week): 95.2; hind foot pad volume, group average, relative to initial volume ([5]; 5th week): 101.1; hind foot pad volume, group average, relative to initial volume ([5]; 6th week): 102.4; hind foot pad volume, group average, relative to initial volume ([5]; 7th week): 95.5; hind foot pad volume, group average, relative to initial volume ([5]; 8th week): 97.9; hind foot pad volume, group average, relative to initial volume ([5]; Primary immunity): 100; time at which a few rats developed encephalomyelitis ([2]; group R, 5 mg/Kg of body weight i.p. once a day for 12 days): 8-11 days after the injection of emulsion; weight increase compared to the other groups (FIG. 6, words) [6]: had the least increase; average weight of mice (FIG. 2) [7]: reduced significantly
periandrin II [PD-II] | eased the symptoms of arthritis | eased the symptoms of arthritis and encephalomyelitis | about one fifth to one twentieth of glycirrhizin | 150 | show the effects of inhibiting cytokine production | protecting and promoting liver function | –
periandrin IV [PD-IV] | eased the symptoms of arthritis | eased the symptoms of arthritis and encephalomyelitis | about one fifth to one twentieth of glycirrhizin | 240 | show the effects of inhibiting cytokine production | protecting and promoting liver function | –
